Experiments:
[1] = system: TRZAWR (Wheat, Winter, cv Riband); test: Preemergence herbicidal evaluation; assay type: in vivo, Triticum aestivum; details: rated 4-5 weeks after treatment
Procedure, shortened: (§1)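 Seeds planted in potting soil cups and sprayed preemergence with aqueous acetone compound solution. Greenhouse-grown; rated 4–5 weeks after treatment on a 0-9 visual scale (stand, vigor, malformation, size, chlorosis, appearance) versus control.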

ORYSAT (Rice, Tebonnet) [2] = test: Flooded paddy, post-transplant rice tolerance; assay type: in vivo, Oryza sativa, (L.) Tebonnet; details: flooded paddy, post-transplant rice, rated 3-4 weeks after treatment, 0-9 rating scale
Procedure, shortened: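 Two ten-day-old Tebonnet rice seedlings transplanted into silt loam, then flooded with water held at 1.5–3 cm above soil; herbicide applied post-transplant. Plants kept in greenhouse and rated visually 0–9 versus untreated control for stand, vigor, malformation, size and chlorosis.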

[3] = system: TRZAWR (Wheat, Winter, cv Riband); test: Postemergence herbicidal evaluation; assay type: in vivo, Triticum aestivum; details: postemergence
Procedure, shortened: (§2)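 Seedlings grown about two weeks in flats, sprayed, then kept under standard greenhouse care. Rated visually 4–5 weeks after treatment on a 0–9 scale (stand, vigour, malformation, size, chlorosis, overall appearance) relative to untreated control; repeat tests averaged.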

ZEAMX (Corn, Field) = test: Postemergence herbicidal evaluation; assay type: in vivo, Zea mays, L.; details: postemergence
Procedure, shortened: as §2

[4] = system: SAGPY (Sagittaria pygmaea); test: Flooded paddy, preemergence weed control; assay type: in vivo, L.; details: rated 3-4 weeks after treatment, 0-9 rating scale
Procedure, shortened: (§3)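 Seeds or propagules were planted in the top 0.5 cm of silt loam soil and kept flooded 1.5–3 cm above the surface throughout, then held in the greenhouse. Injury was rated visually on a 0–9 scale against untreated controls, covering stand, vigor, malformation, size and chlorosis.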

[5] = system: CASOB (Cassia obtusifolia); test: Preemergence herbicidal evaluation; assay type: in vivo, L.; details: rated 4-5 weeks after treatment
Procedure, shortened: as §1

[6] = system: CHEAL (Chenopodium album); test: Preemergence herbicidal evaluation; assay type: in vivo, L.; details: rated 4-5 weeks after treatment
Procedure, shortened: as §1

[7] = system: AMBEL (Ambrosia artemisifolia); test: Preemergence herbicidal evaluation; assay type: in vivo, L.; details: rated 4-5 weeks after treatment
Procedure, shortened: as §1

ORYSAT (Rice, Tebonnet) [8] = test: Preemergence herbicidal evaluation; assay type: in vivo, Oryza sativa, (L.) Tebonnet; details: rated 4-5 weeks after treatment
[9] = system: ABUTH (Abutilon theophrasti); test: Postemergence herbicidal evaluation; assay type: in vivo, Medic.; details: postemergence
Procedure, shortened: as §2

[10] = system: ECHCG (Echinochloa crus-galli); test: Postemergence herbicidal evaluation; assay type: in vivo, (L.) Beau; details: postemergence
Procedure, shortened: as §2

[11] = system: IPOHE (Ipomoea hederacea); test: Postemergence herbicidal evaluation; assay type: in vivo, (L.) Jacq.; details: postemergence
Procedure, shortened: as §2

[12] = system: ABUTH (Abutilon theophrasti); test: Preemergence herbicidal evaluation; assay type: in vivo, Medic.; details: rated 4-5 weeks after treatment
[13] = system: CASOB (Cassia obtusifolia); test: Postemergence herbicidal evaluation; assay type: in vivo, L.; details: postemergence
Procedure, shortened: as §2

[14] = system: CHEAL (Chenopodium album); test: Postemergence herbicidal evaluation; assay type: in vivo, L.; details: postemergence
Procedure, shortened: as §2

[15] = system: AMBEL (Ambrosia artemisifolia); test: Postemergence herbicidal evaluation; assay type: in vivo, L.; details: postemergence
Procedure, shortened: as §2

ORYSAT (Rice, Tebonnet) [16] = test: Postemergence herbicidal evaluation; assay type: in vivo, Oryza sativa, (L.) Tebonnet; details: postemergence
Procedure, shortened: as §2

[17] = system: ECHORC (Echinochloa oryzoides); test: Flooded paddy, preemergence weed control; assay type: in vivo, Echinochloa oryzoides (Ard.) Fritsch.; details: rated 3-4 weeks after treatment, 0-9 rating scale
Procedure, shortened: as §3

Cn1c(C(F)(F)F)cc(=O)n(-c2cc3c(C4OCCCO4)nsc3cc2F)c1=O [Compound 62, 3-(3-m-dioxan-2-yl-6-fluoro-1,2-benzisothiazol-5-yl)-1-methyl-6-(trifluoromethyl)uracil]
6.5: TRZAWR herbicidal rating ([3]; rate 0.0320 kg/ha) | TRZAWR herbicidal rating ([3]; rate 0.0620 kg/ha)
6.0: ZEAMX herbicidal rating (ZEAMX (Corn, Field); rate 0.0320 kg/ha) | herbicidal rating, SAGPY ([4]; rate 0.0320 kg/ha) | ECHCG herbicidal rating ([10]; rate 0.0320 kg/ha) | ORYSAT herbicidal rating (ORYSAT (Rice, Tebonnet) [16]; rate 0.0320 kg/ha) | ORYSAT herbicidal rating (ORYSAT (Rice, Tebonnet) [16]; rate 0.0620 kg/ha)
9.0: Preemergence herbicidal rating TRZAWR ([1]; Rate 0.0620 kg/ha) | Preemergence herbicidal rating TRZAWR ([1]; Rate 0.1250 kg/ha) | Preemergence herbicidal rating TRZAWR ([1]; Rate 0.2500 kg/ha) | herbicidal rating, ORYSAT (rice tolerance) (ORYSAT (Rice, Tebonnet) [2]; rate 0.0080 kg/ha) | herbicidal rating, ORYSAT (rice tolerance) (ORYSAT (Rice, Tebonnet) [2]; rate 0.0320 kg/ha) | herbicidal rating, ORYSAT (rice tolerance) (ORYSAT (Rice, Tebonnet) [2]; rate 0.1250 kg/ha) | herbicidal rating, SAGPY ([4]; rate 0.0080 kg/ha) | herbicidal rating, SAGPY ([4]; rate 0.1250 kg/ha) | Preemergence herbicidal rating CASOB ([5]; Rate 0.0620 kg/ha) | Preemergence herbicidal rating CASOB ([5]; Rate 0.1250 kg/ha) | Preemergence herbicidal rating CASOB ([5]; Rate 0.2500 kg/ha) | Preemergence herbicidal rating CHEAL ([6]; Rate 0.0620 kg/ha) | Preemergence herbicidal rating CHEAL ([6]; Rate 0.1250 kg/ha) | Preemergence herbicidal rating CHEAL ([6]; Rate 0.2500 kg/ha) | Preemergence herbicidal rating AMBEL ([7]; Rate 0.0620 kg/ha) | Preemergence herbicidal rating AMBEL ([7]; Rate 0.1250 kg/ha) | Preemergence herbicidal rating AMBEL ([7]; Rate 0.2500 kg/ha) | Preemergence herbicidal rating ORYSAT (ORYSAT (Rice, Tebonnet) [8]; Rate 0.0620 kg/ha) | Preemergence herbicidal rating ORYSAT (ORYSAT (Rice, Tebonnet) [8]; Rate 0.1250 kg/ha) | Preemergence herbicidal rating ORYSAT (ORYSAT (Rice, Tebonnet) [8]; Rate 0.2500 kg/ha) | ABUTH herbicidal rating ([9]; rate 0.0320 kg/ha) | ABUTH herbicidal rating ([9]; rate 0.0620 kg/ha) | ECHCG herbicidal rating ([10]; rate 0.0620 kg/ha) | IPOHE herbicidal rating ([11]; rate 0.0320 kg/ha) | IPOHE herbicidal rating ([11]; rate 0.0620 kg/ha) | Preemergence herbicidal rating ABUTH ([12]; Rate 0.0620 kg/ha) | Preemergence herbicidal rating ABUTH ([12]; Rate 0.1250 kg/ha) | Preemergence herbicidal rating ABUTH ([12]; Rate 0.2500 kg/ha) | CASOB herbicidal rating ([13]; rate 0.0320 kg/ha) | CASOB herbicidal rating ([13]; rate 0.0620 kg/ha) | CHEAL herbicidal rating ([14]; rate 0.0320 kg/ha) | CHEAL herbicidal rating ([14]; rate 0.0620 kg/ha) | AMBEL herbicidal rating ([15]; rate 0.0320 kg/ha) | AMBEL herbicidal rating ([15]; rate 0.0620 kg/ha) | herbicidal rating, ECHORC ([17]; rate 0.0320 kg/ha) | herbicidal rating, ECHORC ([17]; rate 0.1250 kg/ha)
7.0: ZEAMX herbicidal rating (ZEAMX (Corn, Field); rate 0.0620 kg/ha)
8.5: herbicidal rating, ECHORC ([17]; rate 0.0080 kg/ha)

COCC1COC(c2nsc3ccc(-n4c(=O)cc(C(F)(F)F)n(C)c4=O)cc23)O1 (stereo not drawn) [Compound 64, 3-[3-[4-(methoxymethyl)-1,3-dioxolan-2-yl]-1,2-benzisothiazol-5-yl]-1-methyl-6-(trifluoromethyl)uracil]
0.0: herbicidal rating, SAGPY ([4]; rate 0.0080 kg/ha)
5.5: herbicidal rating, ORYSAT (rice tolerance) (ORYSAT (Rice, Tebonnet) [2]; rate 0.0080 kg/ha) | ZEAMX herbicidal rating (ZEAMX (Corn, Field); rate 0.0320 kg/ha) | ZEAMX herbicidal rating (ZEAMX (Corn, Field); rate 0.0620 kg/ha) | ORYSAT herbicidal rating (ORYSAT (Rice, Tebonnet) [16]; rate 0.0620 kg/ha)
7.5: Preemergence herbicidal rating CASOB ([5]; Rate 0.0620 kg/ha)
9.0: Preemergence herbicidal rating TRZAWR ([1]; Rate 0.0620 kg/ha) | Preemergence herbicidal rating TRZAWR ([1]; Rate 0.1250 kg/ha) | Preemergence herbicidal rating TRZAWR ([1]; Rate 0.2500 kg/ha) | herbicidal rating, ORYSAT (rice tolerance) (ORYSAT (Rice, Tebonnet) [2]; rate 0.1250 kg/ha) | herbicidal rating, SAGPY ([4]; rate 0.1250 kg/ha) | Preemergence herbicidal rating CASOB ([5]; Rate 0.1250 kg/ha) | Preemergence herbicidal rating CASOB ([5]; Rate 0.2500 kg/ha) | Preemergence herbicidal rating CHEAL ([6]; Rate 0.0620 kg/ha) | Preemergence herbicidal rating CHEAL ([6]; Rate 0.1250 kg/ha) | Preemergence herbicidal rating CHEAL ([6]; Rate 0.2500 kg/ha) | Preemergence herbicidal rating AMBEL ([7]; Rate 0.0620 kg/ha) | Preemergence herbicidal rating AMBEL ([7]; Rate 0.1250 kg/ha) | Preemergence herbicidal rating AMBEL ([7]; Rate 0.2500 kg/ha) | Preemergence herbicidal rating ORYSAT (ORYSAT (Rice, Tebonnet) [8]; Rate 0.1250 kg/ha) | Preemergence herbicidal rating ORYSAT (ORYSAT (Rice, Tebonnet) [8]; Rate 0.2500 kg/ha) | ABUTH herbicidal rating ([9]; rate 0.0320 kg/ha) | ABUTH herbicidal rating ([9]; rate 0.0620 kg/ha) | IPOHE herbicidal rating ([11]; rate 0.0320 kg/ha) | IPOHE herbicidal rating ([11]; rate 0.0620 kg/ha) | Preemergence herbicidal rating ABUTH ([12]; Rate 0.0620 kg/ha) | Preemergence herbicidal rating ABUTH ([12]; Rate 0.1250 kg/ha) | Preemergence herbicidal rating ABUTH ([12]; Rate 0.2500 kg/ha) | CHEAL herbicidal rating ([14]; rate 0.0320 kg/ha) | CHEAL herbicidal rating ([14]; rate 0.0620 kg/ha) | AMBEL herbicidal rating ([15]; rate 0.0320 kg/ha) | AMBEL herbicidal rating ([15]; rate 0.0620 kg/ha) | herbicidal rating, ECHORC ([17]; rate 0.0320 kg/ha) | herbicidal rating, ECHORC ([17]; rate 0.1250 kg/ha)
3.0: herbicidal rating, SAGPY ([4]; rate 0.0320 kg/ha) | ECHCG herbicidal rating ([10]; rate 0.0320 kg/ha)
5.0: TRZAWR herbicidal rating ([3]; rate 0.0620 kg/ha) | ECHCG herbicidal rating ([10]; rate 0.0620 kg/ha) | CASOB herbicidal rating ([13]; rate 0.0620 kg/ha) | ORYSAT herbicidal rating (ORYSAT (Rice, Tebonnet) [16]; rate 0.0320 kg/ha)
8.0: herbicidal rating, ORYSAT (rice tolerance) (ORYSAT (Rice, Tebonnet) [2]; rate 0.0320 kg/ha)
8.5: Preemergence herbicidal rating ORYSAT (ORYSAT (Rice, Tebonnet) [8]; Rate 0.0620 kg/ha)
1.5: herbicidal rating, ECHORC ([17]; rate 0.0080 kg/ha)
4.0: TRZAWR herbicidal rating ([3]; rate 0.0320 kg/ha) | CASOB herbicidal rating ([13]; rate 0.0320 kg/ha)
